Results on 17 compounds are retold here after PubChem BioAssay (NCI).

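Each compound was tested at five concentrations against cells in 96-well plates for 48 hours. Abbreviation: GI50, concentration required for 50% inhibition of growth. TGI: total growth inhibition.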

One experiment relates to 786-0 renal. Kind of experiment: NCI-60 cell line screen, 48 h.
On to `Cn1cc(C2=C(c3c4n(c5ccccc35)CCCCC4)C(=O)NC2=O)c2ccccc21`, for which the GI50 is 7.76 µM and the TGI is greater than 25 µM.
With `Cc1ccnc2c1ccc1c(C)ccnc12`, the GI50 is 0.327 µM and the TGI was 10.9 µM.
For `O=C1/C(=C/c2ccc(O)c(O)c2)CCC/C1=C\c1ccc(O)c(O)c1`, the TGI was found to be 15.5 µM.
Take `Nc1ccccc1C#C/C=C\C#Cc1ccccc1OC(F)(F)F`: the GI50 is 5.48 µM and the TGI amounted to 21 µM.
In the case of `CC(C)=CCC\C(C)=C/C=C/C(C)=C\C=C\C(C)=C/C=C/C=C(C)\C=C\C=C(C)/C=C/C=C(/C)CCC=C(C)C`, the TGI was greater than 100 µM.
For `CN1CCCCC1CCN1c2ccccc2Sc2ccc(Cl)cc21` (stereo not given), the GI50 was 3.85 µM and the TGI was 14.5 µM.
On the same counts, the results for `CC(=O)OC1OC([C@@H]2c3cccc(O)c3C(=O)c3c(O)cc(C)cc32)C(O)C(O)C1O` (stereo not given in full) are 0.13 µM and 1.27 µM.
With `Cc1ccc(CN2CCC(C(=O)Nc3ccc(-c4cc5ccccc5[nH]4)cc3)CC2)o1`, the GI50 is 98.9 µM and the TGI is greater than 100 µM.
As to `Nc1c(C(=O)c2cccc(CCS(N)(=O)=O)c2)cnn1-c1ccc(F)cc1`, the GI50 was greater than 25 µM and the TGI is greater than 25 µM.
In the case of `Cc1ccc2c(C)c3c(ccc4ccccc43)c[n+]2c1`, the GI50 is 20.1 µM and the TGI is greater than 100 µM.
Compound `Fc1ccc(NC(=S)SCc2ccc3c(c2)OCO3)cc1F` yielded a TGI of 72.4 µM.
Same read-out and setting: the value for `Cc1ccsc1C(=S)Nc1ccc(Cl)c(/C=N/OC(C)(C)C)c1` was 57.2 µM.
Still for that read-out and setting: the same measure for `CCOC(=O)Cn1c(C(F)(F)F)nc2nc(Cl)c(Cl)nc21`: greater than 100 µM.
With `O=C1NC(=NCCc2cccc(F)c2)S/C1=C\c1ccc2ncccc2c1`, the GI50 is 7.15 µM and the TGI is greater than 25 µM.
For `OCc1cc2ccccc2c2c3c(ccc12)OCO3`, in that order: 42.3 µM and 203 µM.
`Cc1ccc(Cl)c2c(N=Nc3ccccc3[N+](=O)[O-])c(O)[nH]c12`: the TGI was greater than 100 µM.
For the compound `OC1CSSC1Cn1cnc2c(Nc3ccc(OCc4cccc(F)c4)c(Cl)c3)ncnc21` (stereo not given), the GI50 is 5.67 µM and the TGI was found to be 11.9 µM.

In another experiment the test system is CAKI-1 renal. Kind of experiment: NCI-60 cell line screen, 48 h.
Consider `Cn1cc(C2=C(c3c4n(c5ccccc35)CCCCC4)C(=O)NC2=O)c2ccccc21`, for which the GI50 was 2.53 µM and the TGI was greater than 20.2 µM.
Take `Cc1ccnc2c1ccc1c(C)ccnc12`: the GI50 is 0.209 µM and the TGI was determined as 10 µM.
As for `O=C1/C(=C/c2ccc(O)c(O)c2)CCC/C1=C\c1ccc(O)c(O)c1`, the TGI was 12.5 µM.
Take `Nc1ccccc1C#C/C=C\C#Cc1ccccc1OC(F)(F)F`: the GI50 is 4.42 µM and the TGI was 28.2 µM.
For the compound `CC(C)=CCC\C(C)=C/C=C/C(C)=C\C=C\C(C)=C/C=C/C=C(C)\C=C\C=C(C)/C=C/C=C(/C)CCC=C(C)C`, the TGI is greater than 100 µM.
As to `CN1CCCCC1CCN1c2ccccc2Sc2ccc(Cl)cc21` (stereo not given), the GI50 was 3.63 µM and the TGI is 15.8 µM.
As to `CC(=O)OC1OC([C@@H]2c3cccc(O)c3C(=O)c3c(O)cc(C)cc32)C(O)C(O)C1O` (stereo not given in full), the GI50 is 0.0269 µM and the TGI came to 0.241 µM.
For `Cc1ccc(CN2CCC(C(=O)Nc3ccc(-c4cc5ccccc5[nH]4)cc3)CC2)o1`, the GI50 is greater than 100 µM and the TGI was greater than 100 µM.
Consider `Nc1c(C(=O)c2cccc(CCS(N)(=O)=O)c2)cnn1-c1ccc(F)cc1`, for which the GI50 was greater than 25 µM and the TGI was greater than 25 µM.
Turning to `Cc1ccc2c(C)c3c(ccc4ccccc43)c[n+]2c1`, the GI50 was 40.5 µM and the TGI was greater than 100 µM.
As to `Fc1ccc(NC(=S)SCc2ccc3c(c2)OCO3)cc1F`, the TGI was greater than 100 µM.
`Cc1ccsc1C(=S)Nc1ccc(Cl)c(/C=N/OC(C)(C)C)c1` gave a TGI greater than 100 µM.
`CCOC(=O)Cn1c(C(F)(F)F)nc2nc(Cl)c(Cl)nc21` had a TGI of 11.5 µM.
As for `O=C1NC(=NCCc2cccc(F)c2)S/C1=C\c1ccc2ncccc2c1`, the GI50 was 2.43 µM and the TGI was greater than 25 µM.
Turning to `OCc1cc2ccccc2c2c3c(ccc12)OCO3`, the GI50 was 29.3 µM and the TGI was 188 µM.
`Cc1ccc(Cl)c2c(N=Nc3ccccc3[N+](=O)[O-])c(O)[nH]c12`: the TGI is greater than 100 µM.
`OC1CSSC1Cn1cnc2c(Nc3ccc(OCc4cccc(F)c4)c(Cl)c3)ncnc21` (stereo not given): the GI50 was 2.2 µM and the TGI came to 6.85 µM.

In a further experiment the test system is A549 NSCLC. Kind of experiment: NCI-60 cell line screen, 48 h.
Regarding `Cn1cc(C2=C(c3c4n(c5ccccc35)CCCCC4)C(=O)NC2=O)c2ccccc21`, the GI50 was 3.72 µM and the TGI is greater than 25 µM.
Consider `Cc1ccnc2c1ccc1c(C)ccnc12`, for which the GI50 is 0.386 µM and the TGI was determined as 11.4 µM.
As for `O=C1/C(=C/c2ccc(O)c(O)c2)CCC/C1=C\c1ccc(O)c(O)c1`, the TGI is greater than 50.2 µM.
For the compound `Nc1ccccc1C#C/C=C\C#Cc1ccccc1OC(F)(F)F`, the GI50 was 5.99 µM and the TGI was greater than 100 µM.
Turning to `CC(C)=CCC\C(C)=C/C=C/C(C)=C\C=C\C(C)=C/C=C/C=C(C)\C=C\C=C(C)/C=C/C=C(/C)CCC=C(C)C`, the TGI was greater than 100 µM.
With `CN1CCCCC1CCN1c2ccccc2Sc2ccc(Cl)cc21` (stereo not given), the GI50 was 3.31 µM and the TGI was 11.8 µM.
On the same counts, the results for `CC(=O)OC1OC([C@@H]2c3cccc(O)c3C(=O)c3c(O)cc(C)cc32)C(O)C(O)C1O` (stereo not given in full) are 0.109 µM and 1.94 µM.
Turning to `Cc1ccc(CN2CCC(C(=O)Nc3ccc(-c4cc5ccccc5[nH]4)cc3)CC2)o1`, the GI50 is greater than 100 µM and the TGI was greater than 100 µM.
For `Nc1c(C(=O)c2cccc(CCS(N)(=O)=O)c2)cnn1-c1ccc(F)cc1`, the GI50 is greater than 25 µM and the TGI is greater than 25 µM.
Consider `Cc1ccc2c(C)c3c(ccc4ccccc43)c[n+]2c1`, for which the GI50 is 3.85 µM and the TGI was greater than 100 µM.
For the compound `Fc1ccc(NC(=S)SCc2ccc3c(c2)OCO3)cc1F`, the TGI turned out to be 44.6 µM.
Consider `Cc1ccsc1C(=S)Nc1ccc(Cl)c(/C=N/OC(C)(C)C)c1`, for which the TGI was greater than 100 µM.
Regarding `CCOC(=O)Cn1c(C(F)(F)F)nc2nc(Cl)c(Cl)nc21`, the TGI is greater than 100 µM.
Consider `O=C1NC(=NCCc2cccc(F)c2)S/C1=C\c1ccc2ncccc2c1`, for which the GI50 is 1.55 µM and the TGI was greater than 25 µM.
For the compound `OCc1cc2ccccc2c2c3c(ccc12)OCO3`, the GI50 was 30.3 µM and the TGI worked out at 126 µM.
As to `Cc1ccc(Cl)c2c(N=Nc3ccccc3[N+](=O)[O-])c(O)[nH]c12`, the TGI is greater than 100 µM.
`OC1CSSC1Cn1cnc2c(Nc3ccc(OCc4cccc(F)c4)c(Cl)c3)ncnc21` (stereo not given): the GI50 is 0.742 µM and the TGI was determined as 1.88 µM.

The next experiment has as its system A498 renal. Kind of experiment: NCI-60 cell line screen, 48 h.
With `Cn1cc(C2=C(c3c4n(c5ccccc35)CCCCC4)C(=O)NC2=O)c2ccccc21`, the GI50 is 1.05 µM and the TGI stood at 19.4 µM.
In the case of `Cc1ccnc2c1ccc1c(C)ccnc12`, the GI50 is 0.327 µM and the TGI amounted to 3.71 µM.
In turn, `O=C1/C(=C/c2ccc(O)c(O)c2)CCC/C1=C\c1ccc(O)c(O)c1` displayed a TGI of 21.1 µM.
`Nc1ccccc1C#C/C=C\C#Cc1ccccc1OC(F)(F)F`: the GI50 is 3.93 µM and the TGI came out at 14 µM.
`CC(C)=CCC\C(C)=C/C=C/C(C)=C\C=C\C(C)=C/C=C/C=C(C)\C=C\C=C(C)/C=C/C=C(/C)CCC=C(C)C`: the TGI was greater than 100 µM.
`CN1CCCCC1CCN1c2ccccc2Sc2ccc(Cl)cc21` (stereo not given): the GI50 is 2.7 µM and the TGI came out at 10.8 µM.
Regarding `CC(=O)OC1OC([C@@H]2c3cccc(O)c3C(=O)c3c(O)cc(C)cc32)C(O)C(O)C1O` (stereo not given in full), the GI50 is 0.0444 µM and the TGI was 0.358 µM.
Consider `Cc1ccc(CN2CCC(C(=O)Nc3ccc(-c4cc5ccccc5[nH]4)cc3)CC2)o1`, for which the GI50 is 4.04 µM and the TGI is greater than 100 µM.
In the case of `Nc1c(C(=O)c2cccc(CCS(N)(=O)=O)c2)cnn1-c1ccc(F)cc1`, the GI50 is greater than 25 µM and the TGI was greater than 25 µM.
Consider `Cc1ccc2c(C)c3c(ccc4ccccc43)c[n+]2c1`, for which the GI50 was 5.85 µM and the TGI is greater than 100 µM.
On to `Fc1ccc(NC(=S)SCc2ccc3c(c2)OCO3)cc1F`, for which the TGI stood at 61.8 µM.
`Cc1ccsc1C(=S)Nc1ccc(Cl)c(/C=N/OC(C)(C)C)c1` yielded a TGI of 41.1 µM.
Still for that read-out and setting: the value for `CCOC(=O)Cn1c(C(F)(F)F)nc2nc(Cl)c(Cl)nc21` was greater than 74 µM.
With `O=C1NC(=NCCc2cccc(F)c2)S/C1=C\c1ccc2ncccc2c1`, the GI50 was 3.89 µM and the TGI is greater than 25 µM.
Turning to `OCc1cc2ccccc2c2c3c(ccc12)OCO3`, the GI50 was 13.1 µM and the TGI was 39.5 µM.
Compound `Cc1ccc(Cl)c2c(N=Nc3ccccc3[N+](=O)[O-])c(O)[nH]c12` registered a TGI greater than 100 µM.
On to `OC1CSSC1Cn1cnc2c(Nc3ccc(OCc4cccc(F)c4)c(Cl)c3)ncnc21` (stereo not given), for which the GI50 is 6.17 µM and the TGI came out at 12.4 µM.

The next experiment relates to TK-10 renal. Kind of experiment: NCI-60 cell line screen, 48 h.
In the case of `Cn1cc(C2=C(c3c4n(c5ccccc35)CCCCC4)C(=O)NC2=O)c2ccccc21`, the GI50 was 6.38 µM and the TGI is greater than 25 µM.
`Cc1ccnc2c1ccc1c(C)ccnc12`: the GI50 was 0.588 µM and the TGI worked out at 14.6 µM.
For `O=C1/C(=C/c2ccc(O)c(O)c2)CCC/C1=C\c1ccc(O)c(O)c1`, the TGI turned out to be 14.9 µM.
With `Nc1ccccc1C#C/C=C\C#Cc1ccccc1OC(F)(F)F`, the GI50 was 10.6 µM and the TGI stood at 43.7 µM.
`CC(C)=CCC\C(C)=C/C=C/C(C)=C\C=C\C(C)=C/C=C/C=C(C)\C=C\C=C(C)/C=C/C=C(/C)CCC=C(C)C` displayed a TGI greater than 100 µM.
On to `CN1CCCCC1CCN1c2ccccc2Sc2ccc(Cl)cc21` (stereo not given), for which the GI50 is 2.27 µM and the TGI amounted to 7.09 µM.
For `CC(=O)OC1OC([C@@H]2c3cccc(O)c3C(=O)c3c(O)cc(C)cc32)C(O)C(O)C1O` (stereo not given in full), the GI50 was 0.0286 µM and the TGI was 0.26 µM.
As to `Cc1ccc(CN2CCC(C(=O)Nc3ccc(-c4cc5ccccc5[nH]4)cc3)CC2)o1`, the GI50 was greater than 100 µM and the TGI is greater than 100 µM.
Turning to `Nc1c(C(=O)c2cccc(CCS(N)(=O)=O)c2)cnn1-c1ccc(F)cc1`, the GI50 is greater than 25 µM and the TGI is greater than 25 µM.
With `Cc1ccc2c(C)c3c(ccc4ccccc43)c[n+]2c1`, the GI50 was 68.3 µM and the TGI is greater than 100 µM.
The compound `Fc1ccc(NC(=S)SCc2ccc3c(c2)OCO3)cc1F` gave a TGI greater than 100 µM.
Same read-out and setting: the same measure for `Cc1ccsc1C(=S)Nc1ccc(Cl)c(/C=N/OC(C)(C)C)c1`: 41.1 µM; for `CCOC(=O)Cn1c(C(F)(F)F)nc2nc(Cl)c(Cl)nc21`: greater than 100 µM.
On to `O=C1NC(=NCCc2cccc(F)c2)S/C1=C\c1ccc2ncccc2c1`, for which the GI50 was greater than 12.4 µM and the TGI is greater than 25 µM.
With `OCc1cc2ccccc2c2c3c(ccc12)OCO3`, the GI50 is 31.2 µM and the TGI stood at 79.1 µM.
`Cc1ccc(Cl)c2c(N=Nc3ccccc3[N+](=O)[O-])c(O)[nH]c12` returned a TGI greater than 100 µM.
Turning to `OC1CSSC1Cn1cnc2c(Nc3ccc(OCc4cccc(F)c4)c(Cl)c3)ncnc21` (stereo not given), the GI50 is 1.15 µM and the TGI worked out at 5.01 µM.
